Measurements reported in PubChem BioAssay AID2060888 (Molecular Pharmacology Branch, DTP, NCI, 2025).
pIC50: −log10 of the molar value.

System: 695427-040-R-J1-PDC complex spheroid viability
Assay: Anticancer human tumor 695427-040-R-J1-PDC patient-derived colon adenocarcinoma cell line growth inhibition [RAS]
Conditions: for pIC50: curve of first compound; for viability, T/C: stronger effect = lower value
Text: RAS pathway inhibitors in Combinations in Complex Spheroids
A high-throughput screen of multi-cell type tumor spheroids was designed to identify active combinations of RAS pathway inhibitors and targeted small molecules. Complex spheroids include a stromal component modeled by human endothelial cells (HUVEC) and fibroblasts modeled by human mesenchymal stem cells (MSCs). The concentration ranges selected for each drug and investigational agent were based upon clinically achievable concentrations if the clinical Cmax of the agent was known.
Compounds. The drugs and investigational agents: abemaciclib (NSC768073), cobimetinib (NSC768068), divarasib (GDC6063, NSC841802), docetaxel (NSC628503), GDC-1971 (RLY-1971, NSC841576), gemcitabine (NSC613327), inavolisib (NSC800729), ipatasertib (NSC767898), KB-0742 (NSC834161), MRTX-1133 (NSC836407), osimertinib (NSC779217), RMC-4630 (NSC839698), RMC-6236 (NSC851965), RMC-6291 (NSC852671), Ro-3306 (NSC812927), sapanisertib (NSC764658), SN-38 (NSC673596), staurosporine (NSC755774), SY5609 (NSC837396), and tovorafenib (DAY101, NSC766906), were obtained from the National Cancer Institute (NCI) Developmental Therapeutics Program Chemical Repository. The FDA-approved anticancer drug set is available from the NCI Developmental Therapeutics Program. […] The stock solutions were prepared in dimethyl sulfoxide (DMSO, Sigma-Aldrich, St. Louis, MO, cat. D2650) at 800-fold the tested concentration and stored at -70 degrees C prior to their use. All drugs and investigational agents were tested over a range starting from a high concentration at or near the clinical Cmax and decreasing in half-log increments. If the clinical Cmax for an agent had not been determined, the highest concentration tested was 10 microM.
Cell Culture. All cells were maintained in an incubator at 37 degrees C and 5% CO2 with 95% humidity. The PDC lines were cultured according to standard operating procedures established by the NCI PDMR. All PDCs were thawed and cultured in Matrigel-coated flasks prepared with a working solution of 1X Ham's F-12 nutrient mix, without supplementation (Invitrogen, Waltham, MA, cat. 11765054), 100 U/mL penicillin-streptomycin (Invitrogen, cat. 15140122), and 2.5% Matrigel (Corning Inc., Corning, NY, cat. 354248) for the first three passages. The 362531-283-R-J2-PDC and 782815-120-R-J1-PDC lines were cultured in 6C/Colon 1B media, which includes advanced DMEM/F-12 (Thermo Fisher Scientific, cat. 12634028), 10 mM HEPES (Thermo Fisher Scientific, cat. 15630080), 1X GlutaMAX supplement (Thermo Fisher Scientific, cat. 35050061), 0.1 mg/mL primocin (InvivoGen, San Diego, CA, cat. ant-pm-2), 10% defined fetal bovine serum, heat inactivated (HyClone Laboratories Inc., Logan, UT, cat. SH30070.03HI), 50% L-WRN conditioned media (ATCC, cat. CRL-3276), 1.25 mM N-Acetyl-L-cysteine (Sigma-Aldrich, cat. A9165), 10 mM nicotinamide (Sigma-Aldrich, cat. N0636), 1X B-27 supplement (Thermo Fisher Scientific, cat. 17504044), 1X N-2 supplement (Thermo Fisher Scientific, cat. 17502048), 50 ng/mL human EGF (Thermo Fisher Scientific, cat. PHG0311), and 10 microM Y-27632 dihydrochloride (Tocris Bioscience, cat. 1254). The K12877-001-R-J1-PDC line was cultured in 6I media, which includes all 6C/Colon 1B media plus 10 ng/mL human FGF-10 (PeproTech, cat. 100-26), 1 ng/mL human FGF-2 (PeproTech, cat. 100-18B), 1 µM prostaglandin E2 (Tocris Bioscience, cat. 2296), […] hydrocortisone (Sigma-Aldrich, cat. H4001), and […] bovine insulin (Sigma-Aldrich, cat. I6634). The K86415-001-R-J1-PDC line was cultured in 6D media, which includes all 6C/Colon 1B media components minus the L-WRN conditioned media. The 485176-168-R4-J1-PDC was cultured in PANC media, which includes all 6C/Colon 1B media plus 100 ng/mL human FGF-10 (PeproTech, cat. 100-26), 500 nM SB-431542 (Selleckchem, cat. S1067), and 10 nM gastrin (Tocris Bioscience, cat. 3006). […]

[1] = second compound 0.0316 µM, first compound 0.0316 µM
[2] = second compound 0.0316 µM, first compound 0.1 µM
[3] = second compound 0.0316 µM, first compound 0.316 µM
[4] = second compound 0.0316 µM, first compound 1 µM
[5] = second compound 0.0316 µM, first compound 3.16 µM
[6] = second compound 0.0316 µM, first compound 10 µM
[7] = second compound 0.1 µM, first compound 0.0316 µM
[8] = second compound 0.1 µM, first compound 0.1 µM
[9] = second compound 0.1 µM, first compound 0.316 µM
[10] = second compound 0.1 µM, first compound 1 µM
[11] = second compound 0.1 µM, first compound 3.16 µM
[12] = second compound 0.1 µM, first compound 10 µM
[13] = second compound 0.316 µM, first compound 0.0316 µM
[14] = second compound 0.316 µM, first compound 0.1 µM
[15] = second compound 0.316 µM, first compound 0.316 µM
[16] = second compound 0.316 µM, first compound 1 µM
[17] = second compound 0.316 µM, first compound 3.16 µM
[18] = second compound 0.316 µM, first compound 10 µM
[19] = second compound 1 µM, first compound 0.0316 µM
[20] = second compound 1 µM, first compound 0.1 µM
[21] = second compound 1 µM, first compound 0.316 µM
[22] = second compound 1 µM, first compound 1 µM
[23] = second compound 1 µM, first compound 3.16 µM
[24] = second compound 1 µM, first compound 10 µM
[25] = second compound 3.16 µM, first compound 0.0316 µM
[26] = second compound 3.16 µM, first compound 0.1 µM
[27] = second compound 3.16 µM, first compound 0.316 µM
[28] = second compound 3.16 µM, first compound 1 µM
[29] = second compound 3.16 µM, first compound 3.16 µM
[30] = second compound 3.16 µM, first compound 10 µM
[31] = second compound 10 µM, first compound 0.0316 µM
[32] = second compound 10 µM, first compound 0.1 µM
[33] = second compound 10 µM, first compound 0.316 µM
[34] = second compound 10 µM, first compound 1 µM
[35] = second compound 10 µM, first compound 3.16 µM
[36] = second compound 10 µM, first compound 10 µM
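Note: viability read after seven days of drug exposure.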
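Throughout, for viability, T/C: 100% = DMSO vehicle control viability.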

CC1(O)CCCC1n1c(=O)c(C(F)F)cc2cnc(NC3CCN(S(C)(=O)=O)CC3)nc21 (stereo unspecified) + C#Cc1c(F)ccc2cc(O)cc(-c3ncc4c(N5CC6CCC(C5)N6)nc(OCC56CCCN5CC(F)C6)nc4c3F)c12
pIC50 (second compound 0.0316 µM): < 5.00 | pIC50 (second compound 0.1 µM): < 5.00 | pIC50 (second compound 0.316 µM): 5.05 | pIC50 (second compound 1 µM): 5.14 | pIC50 (second compound 3.16 µM): 5.37 | pIC50 (second compound 10 µM): > 7.50 | viability, T/C [1]: 95.4% | viability, T/C [2]: 95.5% | viability, T/C [3]: 103% | viability, T/C [4]: 123% | viability, T/C [5]: 122% | viability, T/C [6]: 57.4% | viability, T/C [7]: 104% | viability, T/C [8]: 94.7% | viability, T/C [9]: 109% | viability, T/C [10]: 120% | viability, T/C [11]: 114% | viability, T/C [12]: 52.5% | viability, T/C [13]: 84% | viability, T/C [14]: 80.6% | viability, T/C [15]: 97.6% | viability, T/C [16]: 103% | viability, T/C [17]: 104% | viability, T/C [18]: 45.4% | viability, T/C [19]: 82.7% | viability, T/C [20]: 75.3% | viability, T/C [21]: 78.7% | viability, T/C [22]: 89.8% | viability, T/C [23]: 84.2% | viability, T/C [24]: 38.1% | viability, T/C [25]: 59.7% | viability, T/C [26]: 54.7% | viability, T/C [27]: 64.3% | viability, T/C [28]: 57.4% | viability, T/C [29]: 57.3% | viability, T/C [30]: 30% | viability, T/C [31]: 42.9% | viability, T/C [32]: 41.9% | viability, T/C [33]: 42.1% | viability, T/C [34]: 43.4% | viability, T/C [35]: 36.1% | viability, T/C [36]: 15.6%

CCC(CC)c1cc(NC2CCC(N)C2)n2nccc2n1 (stereo unspecified) + C#Cc1c(F)ccc2cc(O)cc(-c3ncc4c(N5CC6CCC(C5)N6)nc(OCC56CCCN5CC(F)C6)nc4c3F)c12
pIC50 (second compound 0.0316 µM): 5.71 | pIC50 (second compound 0.1 µM): 5.72 | pIC50 (second compound 0.316 µM): 5.74 | pIC50 (second compound 1 µM): 5.80 | pIC50 (second compound 3.16 µM): 5.91 | pIC50 (second compound 10 µM): > 7.50 | viability, T/C [1]: 102% | viability, T/C [2]: 109% | viability, T/C [3]: 110% | viability, T/C [4]: 110% | viability, T/C [5]: 5.99% | viability, T/C [6]: 12.4% | viability, T/C [7]: 95.5% | viability, T/C [8]: 90.5% | viability, T/C [9]: 108% | viability, T/C [10]: 101% | viability, T/C [11]: 6.65% | viability, T/C [12]: 13.9% | viability, T/C [13]: 99.3% | viability, T/C [14]: 90.8% | viability, T/C [15]: 97.2% | viability, T/C [16]: 91.3% | viability, T/C [17]: 7.6% | viability, T/C [18]: 13.9% | viability, T/C [19]: 76.9% | viability, T/C [20]: 70.5% | viability, T/C [21]: 76.8% | viability, T/C [22]: 82.1% | viability, T/C [23]: 6.13% | viability, T/C [24]: 17% | viability, T/C [25]: 66.9% | viability, T/C [26]: 59.6% | viability, T/C [27]: 64.9% | viability, T/C [28]: 59.2% | viability, T/C [29]: 4.92% | viability, T/C [30]: 15.3% | viability, T/C [31]: 40.6% | viability, T/C [32]: 43.7% | viability, T/C [33]: 43.6% | viability, T/C [34]: 38.2% | viability, T/C [35]: 1.94% | viability, T/C [36]: 7.42%

CCN1CCN(Cc2ccc(Nc3ncc(F)c(-c4cc(F)c5nc(C)n(C(C)C)c5c4)n3)nc2)CC1 + C#Cc1c(F)ccc2cc(O)cc(-c3ncc4c(N5CC6CCC(C5)N6)nc(OCC56CCCN5CC(F)C6)nc4c3F)c12
pIC50 (second compound 0.0316 µM): < 6.00 | pIC50 (second compound 0.1 µM): < 6.00 | pIC50 (second compound 0.316 µM): < 6.00 | pIC50 (second compound 1 µM): < 6.00 | pIC50 (second compound 3.16 µM): < 6.00 | pIC50 (second compound 10 µM): > 8.50 | viability, T/C (second compound 0.0316 µM, first compound 0.00316 µM): 94.9% | viability, T/C (second compound 0.0316 µM, first compound 0.01 µM): 102% | viability, T/C [1]: 85.8% | viability, T/C [2]: 88.4% | viability, T/C [3]: 100% | viability, T/C [4]: 106% | viability, T/C (second compound 0.1 µM, first compound 0.00316 µM): 93% | viability, T/C (second compound 0.1 µM, first compound 0.01 µM): 92.9% | viability, T/C [7]: 90.5% | viability, T/C [8]: 79.4% | viability, T/C [9]: 91.6% | viability, T/C [10]: 96.3% | viability, T/C (second compound 0.316 µM, first compound 0.00316 µM): 83.1% | viability, T/C (second compound 0.316 µM, first compound 0.01 µM): 85.3% | viability, T/C [13]: 78.1% | viability, T/C [14]: 78.6% | viability, T/C [15]: 77.7% | viability, T/C [16]: 85.6% | viability, T/C (second compound 1 µM, first compound 0.00316 µM): 75.2% | viability, T/C (second compound 1 µM, first compound 0.01 µM): 68.1% | viability, T/C [19]: 61% | viability, T/C [20]: 60.5% | viability, T/C [21]: 74.1% | viability, T/C [22]: 71.3% | viability, T/C (second compound 3.16 µM, first compound 0.00316 µM): 53.3% | viability, T/C (second compound 3.16 µM, first compound 0.01 µM): 52.9% | viability, T/C [25]: 51.2% | viability, T/C [26]: 48.2% | viability, T/C [27]: 50.6% | viability, T/C [28]: 62% | viability, T/C (second compound 10 µM, first compound 0.00316 µM): 41.1% | viability, T/C (second compound 10 µM, first compound 0.01 µM): 45.2% | viability, T/C [31]: 36.4% | viability, T/C [32]: 33.1% | viability, T/C [33]: 30.8% | viability, T/C [34]: 32.6%
